From US8895761B2, “4-phenylpyrane-3,5-diones, 4-phenylthiopyrane-3,5-diones and 2-phenylcyclohexane-1,3,5-triones as herbicides” (Syngenta Limited, priority 2007, dated 2014)

Key:
Assay type in all cases: in vivo
[1] = system: Alopecurus myosuroides (ALOMY); assay: Pre-emergence herbicidal glasshouse test, Alopecurus myosuroides; details: Alopecurus myosuroides, 312 h, rate 250 g/ha, evaluated after 13 days, scale 100 = total damage to plant, 0 = no damage
In short: (§1)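 Visual damage scores (0 = undamaged, top = plant totally killed) were taken 13 days after spraying. Treatment was given one day after sowing or at day 8 of cultivation, under 24/16° C. glasshouse conditions.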

Lolium perenne (LOLPE) [2] = assay: Post-emergence herbicidal glasshouse test, Lolium perenne; details: 312 h, rate 250 g/ha, evaluated after 13 days, scale 100 = total damage to plant, 0 = no damage
In short: as §1

Avena fatua (AVEFA) [3] = assay: Pre-emergence herbicidal glasshouse test, Avena fatua; details: Avena fatua, 312 h, rate 250 g/ha, evaluated after 13 days, scale 100 = total damage to plant, 0 = no damage
In short: as §1

Lolium perenne (LOLPE) [4] = assay: Pre-emergence herbicidal glasshouse test, Lolium perenne; details: 312 h, rate 250 g/ha, evaluated after 13 days, scale 100 = total damage to plant, 0 = no damage
In short: as §1

[5] = system: Alopecurus myosuroides (ALOMY); assay: Post-emergence herbicidal glasshouse test, Alopecurus myosuroides; details: Alopecurus myosuroides, 312 h, rate 250 g/ha, evaluated after 13 days, scale 100 = total damage to plant, 0 = no damage
In short: as §1

[6] = system: Echinochloa crus-galli (ECHCG); assay: Pre-emergence herbicidal glasshouse test, Echinochloa crus-galli; details: Echinochloa crus-galli, 312 h, rate 250 g/ha, evaluated after 13 days, scale 100 = total damage to plant, 0 = no damage
In short: as §1

Avena fatua (AVEFA) [7] = assay: Post-emergence herbicidal glasshouse test, Avena fatua; details: Avena fatua, 312 h, rate 250 g/ha, evaluated after 13 days, scale 100 = total damage to plant, 0 = no damage
In short: as §1

[8] = system: Echinochloa crus-galli (ECHCG); assay: Post-emergence herbicidal glasshouse test, Echinochloa crus-galli; details: Echinochloa crus-galli, 312 h, rate 250 g/ha, evaluated after 13 days, scale 100 = total damage to plant, 0 = no damage
In short: as §1

CCc1cc(-c2ccc(Cl)cc2F)ccc1C1=C(O)C(C)(C)OC(C)(C)C1=O [Compound A-51]
pest or weed control at 250 g/ha [1]: 0%
pest or weed control at 250 g/ha (Lolium perenne (LOLPE) [2]): 50%
pest or weed control at 250 g/ha (Avena fatua (AVEFA) [3]): 0%
pest or weed control at 250 g/ha (Lolium perenne (LOLPE) [4]): 0%
pest or weed control at 250 g/ha [5]: 60%
pest or weed control at 250 g/ha [6]: 20%
pest or weed control at 250 g/ha (Avena fatua (AVEFA) [7]): 60%
pest or weed control at 250 g/ha [8]: 70%

CCc1cc(-c2ccc(F)c(F)c2)ccc1C1=C(O)C(C)(CC)OC(C)(C)C1=O (stereo not drawn) [Compound A-119]
pest or weed control at 250 g/ha [1]: 40%
pest or weed control at 250 g/ha (Lolium perenne (LOLPE) [2]): 90%
pest or weed control at 250 g/ha (Avena fatua (AVEFA) [3]): 10%
pest or weed control at 250 g/ha (Lolium perenne (LOLPE) [4]): 60%
pest or weed control at 250 g/ha [5]: 100%
pest or weed control at 250 g/ha [6]: 30%
pest or weed control at 250 g/ha (Avena fatua (AVEFA) [7]): 90%
pest or weed control at 250 g/ha [8]: 100%

CCc1cc(-c2cccc(OC)c2)ccc1C1=C(O)C(C)(C)OC(C)(C)C1=O [Compound A-71]
pest or weed control at 250 g/ha [1]: 0%
pest or weed control at 250 g/ha (Lolium perenne (LOLPE) [2]): 80%
pest or weed control at 250 g/ha (Avena fatua (AVEFA) [3]): 0%
pest or weed control at 250 g/ha (Lolium perenne (LOLPE) [4]): 0%
pest or weed control at 250 g/ha [5]: 30%
pest or weed control at 250 g/ha [6]: 0%
pest or weed control at 250 g/ha (Avena fatua (AVEFA) [7]): 0%
pest or weed control at 250 g/ha [8]: 80%

CCc1cc(-c2ccc(F)c(F)c2F)ccc1C1=C(O)C(C)(CC)OC(C)(CC)C1=O (stereo not drawn) [Compound A-133]
pest or weed control at 250 g/ha [1]: 30%
pest or weed control at 250 g/ha (Lolium perenne (LOLPE) [2]): 50%
pest or weed control at 250 g/ha (Avena fatua (AVEFA) [3]): 0%
pest or weed control at 250 g/ha (Lolium perenne (LOLPE) [4]): 30%
pest or weed control at 250 g/ha [5]: 60%
pest or weed control at 250 g/ha [6]: 0%
pest or weed control at 250 g/ha (Avena fatua (AVEFA) [7]): 20%
pest or weed control at 250 g/ha [8]: 60%

CCc1cc(-c2cc(F)c(F)cc2F)ccc1C1=C(O)C(C)(CC)OC(C)(CC)C1=O (stereo not drawn) [Compound A-132]
pest or weed control at 250 g/ha [1]: 20%
pest or weed control at 250 g/ha (Lolium perenne (LOLPE) [2]): 50%
pest or weed control at 250 g/ha (Avena fatua (AVEFA) [3]): 0%
pest or weed control at 250 g/ha (Lolium perenne (LOLPE) [4]): 20%
pest or weed control at 250 g/ha [5]: 60%
pest or weed control at 250 g/ha [6]: 10%
pest or weed control at 250 g/ha (Avena fatua (AVEFA) [7]): 0%
pest or weed control at 250 g/ha [8]: 80%

CCc1cc(-c2ccc(Cl)s2)ccc1C1=C(O)C(C)(C)OC(C)(C)C1=O [Compound A-41]
pest or weed control at 250 g/ha [1]: 0%
pest or weed control at 250 g/ha (Lolium perenne (LOLPE) [2]): 60%
pest or weed control at 250 g/ha (Avena fatua (AVEFA) [3]): 30%
pest or weed control at 250 g/ha (Lolium perenne (LOLPE) [4]): 20%
pest or weed control at 250 g/ha [5]: 50%
pest or weed control at 250 g/ha [6]: 0%
pest or weed control at 250 g/ha (Avena fatua (AVEFA) [7]): 0%
pest or weed control at 250 g/ha [8]: 70%

CC1(C)OC(C)(C)C(O)=C(c2ccc(-c3ccc(F)cc3)cc2Cl)C1=O [Compound A-134]
pest or weed control at 250 g/ha [1]: 40%
pest or weed control at 250 g/ha (Lolium perenne (LOLPE) [2]): 50%
pest or weed control at 250 g/ha (Avena fatua (AVEFA) [3]): 0%
pest or weed control at 250 g/ha (Lolium perenne (LOLPE) [4]): 30%
pest or weed control at 250 g/ha [5]: 70%
pest or weed control at 250 g/ha [6]: 80%
pest or weed control at 250 g/ha (Avena fatua (AVEFA) [7]): 20%
pest or weed control at 250 g/ha [8]: 100%

CCc1cc(-c2ccc(Cl)c(Cl)c2)ccc1C1=C(OC(C)=O)C(C)(C)OC(C)(C)C1=O [Compound D-2]
pest or weed control at 250 g/ha [1]: 30%
pest or weed control at 250 g/ha (Lolium perenne (LOLPE) [2]): 80%
pest or weed control at 250 g/ha (Avena fatua (AVEFA) [3]): 20%
pest or weed control at 250 g/ha (Lolium perenne (LOLPE) [4]): 100%
pest or weed control at 250 g/ha [5]: 70%
pest or weed control at 250 g/ha [6]: 90%
pest or weed control at 250 g/ha (Avena fatua (AVEFA) [7]): 40%
pest or weed control at 250 g/ha [8]: 90%

CCc1cc(-c2ccc(F)cc2)ccc1C1=C(O)C(C)OC(C)(C)C1=O (stereo not drawn) [Compound A-105]
pest or weed control at 250 g/ha [1]: 40%
pest or weed control at 250 g/ha (Lolium perenne (LOLPE) [2]): 90%
pest or weed control at 250 g/ha (Avena fatua (AVEFA) [3]): 0%
pest or weed control at 250 g/ha (Lolium perenne (LOLPE) [4]): 40%
pest or weed control at 250 g/ha [5]: 80%
pest or weed control at 250 g/ha [6]: 20%
pest or weed control at 250 g/ha (Avena fatua (AVEFA) [7]): 30%
pest or weed control at 250 g/ha [8]: 90%

CCc1cc(-c2ccc(F)c(F)c2)ccc1C1=C(O)C(C)(C)[S+]([O-])C(C)(C)C1=O (stereo not drawn) [Compound B-11]
pest or weed control at 250 g/ha [1]: 50%
pest or weed control at 250 g/ha (Lolium perenne (LOLPE) [2]): 60%
pest or weed control at 250 g/ha (Avena fatua (AVEFA) [3]): 20%
pest or weed control at 250 g/ha (Lolium perenne (LOLPE) [4]): 40%
pest or weed control at 250 g/ha [5]: 60%
pest or weed control at 250 g/ha [6]: 0%
pest or weed control at 250 g/ha (Avena fatua (AVEFA) [7]): 70%
pest or weed control at 250 g/ha [8]: 40%

CCc1cc(-c2ccc(F)cc2)ccc1C1=C(O)C(C)(CC)OC(C)(C)C1=O (stereo not drawn) [Compound A-102]
pest or weed control at 250 g/ha [1]: 60%
pest or weed control at 250 g/ha (Lolium perenne (LOLPE) [2]): 90%
pest or weed control at 250 g/ha (Avena fatua (AVEFA) [3]): 10%
pest or weed control at 250 g/ha (Lolium perenne (LOLPE) [4]): 70%
pest or weed control at 250 g/ha [5]: 100%
pest or weed control at 250 g/ha [6]: 30%
pest or weed control at 250 g/ha (Avena fatua (AVEFA) [7]): 80%
pest or weed control at 250 g/ha [8]: 90%

CCc1cc(-c2ccc(F)cc2)ccc1C1=C(O)C2(CCCC2)OC(C)(C)C1=O [Compound A-103]
pest or weed control at 250 g/ha [1]: 20%
pest or weed control at 250 g/ha (Lolium perenne (LOLPE) [2]): 60%
pest or weed control at 250 g/ha (Avena fatua (AVEFA) [3]): 0%
pest or weed control at 250 g/ha (Lolium perenne (LOLPE) [4]): 20%
pest or weed control at 250 g/ha [5]: 60%
pest or weed control at 250 g/ha [6]: 20%
pest or weed control at 250 g/ha (Avena fatua (AVEFA) [7]): 10%
pest or weed control at 250 g/ha [8]: 90%

CCc1cc(-c2ccc(Cl)cc2)ccc1C1=C(O)C(C)(C)OC(C)(C)C1=O [Compound A-35]
pest or weed control at 250 g/ha [1]: 50%
pest or weed control at 250 g/ha (Lolium perenne (LOLPE) [2]): 90%
pest or weed control at 250 g/ha (Avena fatua (AVEFA) [3]): 40%
pest or weed control at 250 g/ha (Lolium perenne (LOLPE) [4]): 80%
pest or weed control at 250 g/ha [5]: 100%
pest or weed control at 250 g/ha [6]: 90%
pest or weed control at 250 g/ha (Avena fatua (AVEFA) [7]): 80%
pest or weed control at 250 g/ha [8]: 100%

CCc1cc(-c2ccc(C(F)(F)F)cc2)ccc1C1=C(O)C(C)(C)OC(C)(C)C1=O [Compound A-70]
pest or weed control at 250 g/ha [1]: 0%
pest or weed control at 250 g/ha (Lolium perenne (LOLPE) [2]): 50%
pest or weed control at 250 g/ha (Avena fatua (AVEFA) [3]): 0%
pest or weed control at 250 g/ha (Lolium perenne (LOLPE) [4]): 0%
pest or weed control at 250 g/ha [5]: 40%
pest or weed control at 250 g/ha [6]: 0%
pest or weed control at 250 g/ha (Avena fatua (AVEFA) [7]): 0%
pest or weed control at 250 g/ha [8]: 80%

CCc1cc(-c2ccc(Cl)c(F)c2Cl)ccc1C1=C(O)C(C)(C)OC(C)(C)C1=O [Compound A-46]
pest or weed control at 250 g/ha [1]: 0%
pest or weed control at 250 g/ha (Lolium perenne (LOLPE) [2]): 40%
pest or weed control at 250 g/ha (Avena fatua (AVEFA) [3]): 0%
pest or weed control at 250 g/ha (Lolium perenne (LOLPE) [4]): 40%
pest or weed control at 250 g/ha [5]: 50%
pest or weed control at 250 g/ha [6]: 30%
pest or weed control at 250 g/ha (Avena fatua (AVEFA) [7]): 0%
pest or weed control at 250 g/ha [8]: 80%

CCc1cc(-c2cc(F)c(F)c(F)c2)ccc1C1=C(O)C(C)(CC)OC(C)(CC)C1=O (stereo not drawn) [Compound A-130]
pest or weed control at 250 g/ha [1]: 50%
pest or weed control at 250 g/ha (Lolium perenne (LOLPE) [2]): 60%
pest or weed control at 250 g/ha (Avena fatua (AVEFA) [3]): 10%
pest or weed control at 250 g/ha (Lolium perenne (LOLPE) [4]): 60%
pest or weed control at 250 g/ha [5]: 90%
pest or weed control at 250 g/ha [6]: 40%
pest or weed control at 250 g/ha (Avena fatua (AVEFA) [7]): 70%
pest or weed control at 250 g/ha [8]: 90%

CCc1cc(-c2cc(F)c(F)cc2F)ccc1C1=C(O)C(C)(C)OC(C)(C)C1=O [Compound A-86]
pest or weed control at 250 g/ha [1]: 0%
pest or weed control at 250 g/ha (Lolium perenne (LOLPE) [2]): 90%
pest or weed control at 250 g/ha (Avena fatua (AVEFA) [3]): 0%
pest or weed control at 250 g/ha (Lolium perenne (LOLPE) [4]): 0%
pest or weed control at 250 g/ha [5]: 80%
pest or weed control at 250 g/ha [6]: 0%
pest or weed control at 250 g/ha (Avena fatua (AVEFA) [7]): 70%
pest or weed control at 250 g/ha [8]: 100%

CCc1cc(-c2cc(Cl)ccc2OC)ccc1C1=C(O)C(C)(C)OC(C)(C)C1=O [Compound A-74]
pest or weed control at 250 g/ha [1]: 0%
pest or weed control at 250 g/ha (Lolium perenne (LOLPE) [2]): 70%
pest or weed control at 250 g/ha (Avena fatua (AVEFA) [3]): 0%
pest or weed control at 250 g/ha (Lolium perenne (LOLPE) [4]): 0%
pest or weed control at 250 g/ha [5]: 80%
pest or weed control at 250 g/ha [6]: 0%
pest or weed control at 250 g/ha (Avena fatua (AVEFA) [7]): 40%
pest or weed control at 250 g/ha [8]: 100%
